The values that follow come from the METLIN SMRT retention time set (Domingo-Almenara et al. 2019).

This data set can be described thus: gradient 5% acetonitrile 3 min, to 50% in 2 min, to 85% in 15 min, held 3 min, 100 µL/min. The conditions noted are these: column: Zorbax Extend-C18 2.1 x 50 mm; eluents: water / acetonitrile, 0.1% formic acid. Put shortly:
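Pure standards were run in mixtures of ~100 molecules by HPLC coupled to a quadrupole time-of-flight mass spectrometer. The column was a Zorbax Extend-C18 (2.1 × 50 mm, 1.8 μm) at 100 μL/min, with water and acetonitrile each containing 0.1% formic acid, in positive and negative ionization mode. Dead and dwell volumes were 40 μL and 900 μL. Retention time was taken from computationally picked adduct peaks, each manually inspected, with data collected over 3 months.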
`CCNC(=O)CCc1nc2ccccc2n(CC(=O)Nc2ccc(OC)c(OC)c2)c1=O` had an RP-LC retention time of 658 s.

For `CC(C)Cn1cc(CCNS(=O)(=O)c2ccc(Cl)s2)c2cccnc21`, the RP-LC retention time came to 987 s.

On to `COc1ccc(NC(=O)c2cn3c(n2)CCCC3)cc1`, for which the RP-LC retention time is 574 s.

`Cc1ccc2ncn(C3CCN(C(=O)Nc4ccc(C)c(F)c4)CC3)c(=O)c2c1` displayed an RP-LC retention time of 851 s.

With `Cc1ccc(Cn2c(CN3CCC(C(=O)N4CCOCC4)CC3)cc3ccccc32)cc1`, the RP-LC retention time was 717 s.

Compound `O=C(CN1C(=O)CCCc2cc(S(=O)(=O)N3CCCCCC3)ccc21)N1CCCCCC1` gave an RP-LC retention time of 915 s.

The compound `Cc1ccc(NC(=O)C2CCN(S(=O)(=O)c3ccc4c(c3)CCCC(=O)N4)CC2)c(C)c1` registered an RP-LC retention time of 774 s.

Compound `COc1ccc(-c2noc(C3CCCN3C(=O)c3ccsc3)n2)cc1` (stereo unspecified) had an RP-LC retention time of 849 s.

With `O=C(C1c2ccccc2CCN1C(=O)C1CC1)N1CCN(c2ccccc2F)CC1` (stereo unspecified), the RP-LC retention time was 947 s.

In the case of `CCN1CCn2cc(S(=O)(=O)Nc3ccc(C)cc3F)cc2C1=O`, the RP-LC retention time came out at 725 s.

`O=C(Nc1nnc(-c2cccs2)o1)c1ccc([N+](=O)[O-])o1` had an RP-LC retention time of 677 s.

Consider `Cc1noc(/C=C/c2ccc(S(=O)(=O)NCC3CCCO3)s2)c1NC(=O)C1CC1` (stereo unspecified), for which the RP-LC retention time was determined as 677 s.

Compound `O=C(Cc1csc(Nc2ccccc2)n1)NCCC1=CCCCC1` came in with an RP-LC retention time of 865 s.

`COc1cccc(CSc2ccc(-n3nc4c(c3C)CCC4)nn2)c1` gave an RP-LC retention time of 1240 s.

`O=c1[nH]cc(S(=O)(=O)N2CCCCCC2)c(=O)[nH]1` came in with an RP-LC retention time of 650 s.

Take `O=C(NCCC1=CCCCC1)C1CCN(c2ncccc2-c2nc(-c3ccc(Cl)cc3)no2)CC1`: the RP-LC retention time is 1330 s.

In the case of `COc1ccc2c(c1)C1(CCN(C(=O)NCc3ccc(C)cc3)C1)C(=O)N2` (stereo unspecified), the RP-LC retention time was determined as 725 s.

Consider `CC(=O)N1CCCSc2ccc(S(=O)(=O)N3CCN(c4ccc(Cl)cc4)CC3)cc21`, for which the RP-LC retention time turned out to be 983 s.

For `CCOc1ccc(CN(CCOC)Cc2cc(=O)n3cc(Cl)ccc3n2)cc1`, the RP-LC retention time was determined as 677 s.

`COc1ccc(-c2nc3ccc(C)cn3c2Nc2ccc3c(c2)OCCO3)cc1` had an RP-LC retention time of 692 s.

`Fc1ccc(F)c(CN2CCCCC2c2nc(-c3cnccn3)no2)c1` (stereo unspecified) came in with an RP-LC retention time of 918 s.

In turn, `CC(=O)N1CCc2cc(C)c(S(=O)(=O)NCC3CCCO3)cc21` (stereo unspecified) yielded an RP-LC retention time of 691 s.

`Cc1ccc2c(c1)C(O)(CC(=O)c1ccc(NC(=O)C(C)(C)C)cc1)C(=O)N2` (stereo unspecified) returned an RP-LC retention time of 747 s.

Take `O=C(NCc1ccccc1)c1ccc(CN2CCN(Cc3ccc(F)cc3)C(=O)C2=O)cc1`: the RP-LC retention time amounted to 774 s.

For the compound `CCOc1ccccc1NC(=O)C1CCCN(S(=O)(=O)c2ccc(OC)c(C)c2)C1` (stereo unspecified), the RP-LC retention time was determined as 1080 s.

In turn, `Cc1ccccc1NC(=O)CN1C(=O)CC(C)S(=O)(=O)c2ccccc21` (stereo unspecified) gave an RP-LC retention time of 760 s.

`Cc1noc(-c2nn(C)c3c2CN(C(=O)NC(C)C)CC3)n1` returned an RP-LC retention time of 640 s.

Turning to `CCCc1nc2cccnc2n1C1CCN(C(=O)c2ccc(N3CCCC3=O)cc2)C1` (stereo unspecified), the RP-LC retention time came out at 579 s.

As to `O=C(Cn1nc(N2CCOCC2)c2ccccc2c1=O)Nc1cccc(Cl)c1`, the RP-LC retention time is 846 s.

`CN1C(=O)c2cccn2CC1C(=O)Nc1ccccc1` (stereo unspecified) registered an RP-LC retention time of 681 s.

The compound `COc1ccccc1CNC(=O)CCc1csc(NC(=O)c2ccc(F)cc2)n1` showed an RP-LC retention time of 792 s.

`O=C(c1ccc(Br)o1)N1CCC(c2nnc(-c3ccco3)s2)CC1` returned an RP-LC retention time of 765 s.

For `CCc1nc(-c2ccc(-c3noc(-c4ccnn4C)n3)cc2)cs1`, the RP-LC retention time came out at 1220 s.

For `CN1c2ccccc2C(=O)NC12CCN(C(=O)Nc1ccc(F)cc1)CC2`, the RP-LC retention time turned out to be 729 s.

The compound `Cc1cccc(NC(=O)C2CCN(C(=O)C3Sc4ccccc4NC3=O)CC2)c1C` (stereo unspecified) came in with an RP-LC retention time of 753 s.

`CCOc1ccc(-c2ccc(=O)n(Cc3nc(-c4ccccn4)no3)n2)cc1` displayed an RP-LC retention time of 813 s.

Compound `C=CCNC(=O)c1snc(C(=O)NC(C)C)c1N` yielded an RP-LC retention time of 749 s.

On to `CN1c2cc(F)ccc2C(=O)NC12CCN(C(=O)c1ccc(F)cc1)CC2`, for which the RP-LC retention time is 744 s.

`Cc1ccc(CNC(=O)CCCn2c(=O)c3sccc3n(CC(=O)N3CCCCC3C)c2=O)cc1` (stereo unspecified) yielded an RP-LC retention time of 859 s.

Turning to `CN1C(=O)[C@H]2CN(Cc3ccc(F)cc3Cl)C[C@H]2C1=O`, the RP-LC retention time was found to be 642 s.

The compound `Cc1ccnc(N2CCC(C(=O)NCCCN3CCCC3=O)CC2)n1` showed an RP-LC retention time of 579 s.

Compound `COc1ccc(-n2nnc(C(=O)O)c2C)cc1OC` showed an RP-LC retention time of 628 s.

Turning to `CC(=O)N1CCc2cc(N3CC(C(=O)Nc4ccc(F)cc4)CC3=O)ccc21` (stereo unspecified), the RP-LC retention time was determined as 699 s.

On to `CCCCN1C(=O)NC(c2ccccc2)C(c2nc(-c3ccccc3)no2)=C1C` (stereo unspecified), for which the RP-LC retention time stood at 1130 s.

As for `Cc1noc(-c2ccc(OC3CN(C(=O)NC4CCCCC4)C3)cc2)n1`, the RP-LC retention time came out at 846 s.

Compound `CC1=C2C3OC(=O)C(C)C3CCC2(C)C=C(Cl)C1=O` (stereo unspecified) yielded an RP-LC retention time of 914 s.

With `O=C(NCc1cccc(C(F)(F)F)c1)C1(CCO)CCN(Cc2ccccc2)C1` (stereo unspecified), the RP-LC retention time amounted to 680 s.

Regarding `O=c1n(Cc2ccccc2Cl)nc2n1CCCCC2`, the RP-LC retention time was found to be 768 s.

As to `CC(C)OCCCNC(=O)C(C)n1c(=O)c(C(F)(F)F)nc2ccccc21` (stereo unspecified), the RP-LC retention time amounted to 972 s.

Regarding `O=C(c1cc(C2CC2)[nH]n1)N1CCn2c(nnc2-c2ccccc2)C1`, the RP-LC retention time was 640 s.

In the case of `CCOC(=O)N1CCN(C(=O)Cn2ccc3ccccc32)CC1`, the RP-LC retention time is 731 s.

`Nc1ccc(C(=O)C(=O)c2ccc(N)cc2)cc1`: the RP-LC retention time was 730 s.

Turning to `Cc1ccc(C(=O)NCc2ccc3c(c2)ncn3C)c(C)c1`, the RP-LC retention time came out at 611 s.

Regarding `Cc1ccc(-c2cn3ccn(-c4cccc(F)c4)c(=O)c3n2)c(C)c1`, the RP-LC retention time was determined as 900 s.

For the compound `Cc1ccc(-c2cn3cccnc3n2)cc1NC(=O)c1ccc(C(C)(C)C)cc1`, the RP-LC retention time was 816 s.

`CC(=O)Nc1ccc(-n2cnc(C(=O)NCc3ccccc3)c2)nc1` registered an RP-LC retention time of 663 s.

`O=C(Nc1ccc(N2CCCN(C(=O)C3CC3)CC2)cc1)c1cncc(Br)c1`: the RP-LC retention time was determined as 701 s.

Take `O=C(NCc1nc(-c2ccccc2)no1)c1csc(-c2cnccn2)n1`: the RP-LC retention time came out at 779 s.

`CCCCn1cc(S(=O)(=O)N2CCN(c3ccc(F)cc3)CC2)c2cccnc21` had an RP-LC retention time of 1120 s.

The compound `CCOc1ccc(-c2noc(Cc3nnc(-c4ccc(F)cc4)o3)n2)cc1` returned an RP-LC retention time of 1050 s.

The compound `Cc1oc2ncnc(N3CCCCC3)c2c1C(=O)N(CCN(C)C)Cc1ccccc1` showed an RP-LC retention time of 568 s.
